# Laboratory results taken from ChEMBL document CHEMBL5543068, “Mitochondrial targeting derivatives of honokiol enhanced selective antitumor activity in NCI-H446 cells and decreased in vivo toxicity in Caenorhabditis elegans” (Eur J Med Chem, 2024).
# Active and inactive are the calls of the source. The calls are words filed in the database; no cut-off is given here.
# Legend:
# [1] = Cytotoxicity against HBE (human bronchial epithelial) cells assessed as reduction in cell viability incubated for 48 hrs by MTT assay; type: toxicity, cell-based
# NCI-H446 [2] = assay: Antiproliferative activity against human NCI-H446 cells assessed as reduction in cell viability incubated for 48 hrs by MTT assay; type: functional, cell-based; details: for IC50: NCI-H446, 48 h
# A549 = assay: Antiproliferative activity against human A549 cells assessed as reduction in cell viability incubated for 48 hrs by MTT assay; type: functional, cell-based; details: A549, 48 h
# [3] = Cytotoxicity against human HL7702 cells assessed as reduction in cell viability incubated for 48 hrs by MTT assay; type: toxicity, cell-based; details: HL7702 (L02) cells
# HepG2 = assay: Antiproliferative activity against human HepG2 cells assessed as reduction in cell viability incubated for 48 hrs by MTT assay; type: functional, cell-based; details: HepG2, 48 h
# [4] = Selectivity index, ratio of IC50 for cytotoxicity against HBE (human bronchial epithelial) cells to IC50 for antiproliferative activity against human NCI-H446 cells; type: toxicity, cell-based; details: HBE (human bronchial epithelial) cells versus NCI-H446 cells, read-out: Ratio IC50
# NCI-H446 [5] = assay: Antiproliferative activity against human NCI-H446 cells assessed as reduction in cell viability incubated for 24 to 72 hrs by MTT assay; type: functional, cell-based; details: dose 0.5-8 µM, time 24-72 hrs
# NCI-H446 [6] = assay: Antiproliferative activity against human NCI-H446 cells assessed as reduction in cell viability at 0.5 to 8 uM by MTT assay; type: functional, cell-based; details: dose 0.5-8 µM, time 24-72 hrs, TDE = time-dependent effect
# NCI-H446 [7] = assay: Induction of apoptosis in human NCI-H446 cells assessed as change in cellular nuclei morphology at 1 uM incubated for 24 hrs by DAPI staining based fluorescence inverted microscopic analysis; type: functional, cell-based
# [8] = Induction of apoptosis in HBE (human bronchial epithelial) cells assessed as change in nuclei morphology at 1 to 2 uM incubated for 24 hrs by DAPI staining based fluorescence inverted microscopic analysis; type: toxicity, cell-based; details: dose 1-2 µM
# NCI-H446 [9] = assay: Induction of apoptosis in human NCI-H446 cells assessed as viable cells at 0.25 uM incubated for 24 hrs by Annexin V-FITC/PI staining based flow cytometric analysis (reference value: 96.8 %); type: functional; details: read-out: Activity
# NCI-H446 [10] = assay: Induction of apoptosis in human NCI-H446 cells assessed as early apoptotic cells at 0.25 uM incubated for 24 hrs by Annexin V-FITC/PI staining based flow cytometric analysis (reference value: 0.37 %); type: functional
# NCI-H446 [11] = assay: Induction of apoptosis in human NCI-H446 cells assessed as late apoptotic cells at 0.25 uM incubated for 24 hrs by Annexin V-FITC/PI staining based flow cytometric analysis (reference value: 1.71 %); type: functional
# NCI-H446 [12] = assay: Induction of apoptosis in human NCI-H446 cells assessed as necrotic cells at 0.25 uM incubated for 24 hrs by Annexin V-FITC/PI staining based flow cytometric analysis (reference value: 1.17 %); type: functional
# NCI-H446 [13] = assay: Induction of apoptosis in human NCI-H446 cells assessed as viable cells at 0.5 uM incubated for 24 hrs by Annexin V-FITC/PI staining based flow cytometric analysis (reference value: 96.8 %); type: functional; details: read-out: Activity
# NCI-H446 [14] = assay: Induction of apoptosis in human NCI-H446 cells assessed as early apoptotic cells at 0.5 uM incubated for 24 hrs by Annexin V-FITC/PI staining based flow cytometric analysis (reference value: 0.37 %); type: functional
# NCI-H446 [15] = assay: Induction of apoptosis in human NCI-H446 cells assessed as late apoptotic cells at 0.5 uM incubated for 24 hrs by Annexin V-FITC/PI staining based flow cytometric analysis (reference value: 1.71 %); type: functional
# NCI-H446 [16] = assay: Induction of apoptosis in human NCI-H446 cells assessed as necrotic cells at 0.5 uM incubated for 24 hrs by Annexin V-FITC/PI staining based flow cytometric analysis (reference value: 1.17 %); type: functional
# NCI-H446 [17] = assay: Induction of apoptosis in human NCI-H446 cells assessed as viable cells at 1 uM incubated for 24 hrs by Annexin V-FITC/PI staining based flow cytometric analysis (reference value: 96.8 %); type: functional; details: read-out: Activity
# NCI-H446 [18] = assay: Induction of apoptosis in human NCI-H446 cells assessed as early apoptotic cells at 1 uM incubated for 24 hrs by Annexin V-FITC/PI staining based flow cytometric analysis (reference value: 0.37 %); type: functional
# NCI-H446 [19] = assay: Induction of apoptosis in human NCI-H446 cells assessed as late apoptotic cells at 1 uM incubated for 24 hrs by Annexin V-FITC/PI staining based flow cytometric analysis (reference value: 1.71 %); type: functional
# NCI-H446 [20] = assay: Induction of apoptosis in human NCI-H446 cells assessed as necrotic cells at 1 uM incubated for 24 hrs by Annexin V-FITC/PI staining based flow cytometric analysis (reference value: 1.17 %); type: functional
# NCI-H446 [21] = assay: Induction of apoptosis in human NCI-H446 cells assessed as viable cells at 2 uM incubated for 24 hrs by Annexin V-FITC/PI staining based flow cytometric analysis (reference value: 96.8 %); type: functional; details: read-out: Activity
# NCI-H446 [22] = assay: Induction of apoptosis in human NCI-H446 cells assessed as early apoptotic cells at 2 uM incubated for 24 hrs by Annexin V-FITC/PI staining based flow cytometric analysis (reference value: 0.37 %); type: functional
# NCI-H446 [23] = assay: Induction of apoptosis in human NCI-H446 cells assessed as late apoptotic cells at 2 uM incubated for 24 hrs by Annexin V-FITC/PI staining based flow cytometric analysis (reference value: 1.71 %); type: functional
# NCI-H446 [24] = assay: Induction of apoptosis in human NCI-H446 cells assessed as necrotic cells at 2 uM incubated for 24 hrs by Annexin V-FITC/PI staining based flow cytometric analysis (reference value: 1.17 %); type: functional
# NCI-H446 [25] = assay: Induction of apoptosis in human NCI-H446 cells assessed as decrease in PARP level at 0.5 to 2 uM by Western blot analysis; type: functional, cell-based; details: dose 0.5-2 µM
# NCI-H446 [26] = assay: Induction of apoptosis in human NCI-H446 cells assessed as decrease in caspase-9 level at 0.5 to 2 uM by Western blot analysis; type: functional, cell-based; details: dose 0.5-2 µM
# NCI-H446 [27] = assay: Induction of apoptosis in human NCI-H446 cells assessed as decrease in caspase-3 level at 0.5 to 2 uM by Western blot analysis; type: functional, cell-based; details: dose 0.5-2 µM
# NCI-H446 [28] = assay: Induction of apoptosis in human NCI-H446 cells assessed as increase in cleaved caspase-9 level at 0.5 to 2 uM by Western blot analysis; type: functional, cell-based; details: dose 0.5-2 µM
# NCI-H446 [29] = assay: Induction of apoptosis in human NCI-H446 cells assessed as increase in cleaved caspase-3 level at 0.5 to 2 uM by Western blot analysis; type: functional, cell-based; details: dose 0.5-2 µM
# [30] = Drug uptake in human NCI-H446 cells assessed as green fluorescence at 2.5 uM incubated for 5 hrs by confocal microscopic analysis; type: ADME, cell-based; details: nci-h446, 5 h
# [31] = Drug localization in human NCI-H446 cell mitochondria at 2.5 uM incubated for 5 hrs by MitoTracker Red CMXRos dye based confocal microscopic analysis; type: ADME; details: nci-h446, 5 h
# NCI-H446 [32] = assay: Induction of ROS production in human NCI-H446 cells assessed as increase in intracellular ROS level incubated for 24 hrs by DCFH-DA staining based flow cytometric analysis; type: functional, cell-based; details: dose 0.25-2 µM
# Cell membrane [33] = assay: Induction of mitochondrial membrane potential loss in human NCI-H446 cells incubated for 24 hrs by JC-1 staining based flow cytometric analysis; type: cell membranes; details: dose 0.25-2 µM
# NCI-H446 [34] = assay: Cell cycle arrest in human NCI-H446 cells assessed as G0/G1 phase cells incubated for 24 hrs by PI staining based flow cytometric analysis (reference value: 52.37%); type: functional
# NCI-H446 [35] = assay: Cell cycle arrest in human NCI-H446 cells assessed as increase in subG1 phase cells at 0.25 to 2 uM incubated for 24 hrs by PI staining based flow cytometric analysis; type: functional; details: dose 0.25-2 µM
# NCI-H446 [36] = assay: Cell cycle arrest in human NCI-H446 cells assessed as decrease in S phase cells at 0.25 to 2 uM incubated for 24 hrs by PI staining based flow cytometric analysis; type: functional; details: dose 0.25-2 µM
# NCI-H446 [37] = assay: Synergistic antiproliferative activity against human NCI-H446 cells assessed as reduction in cell viability incubated for 48 hrs in presence of cisplatin by MTT assay; type: functional, cell-based; details: dose 0.5-8 µM
# CDDP-resistant A549 cell [38] = assay: Antiproliferative activity against human CDDP-resistant A549 cells assessed as reduction in cell viability at 0.5 to 16 uM incubated for 48 hrs by MTT assay; type: functional, cell-based; details: dose 0.5-16 µM
# CDDP-resistant A549 cell [39] = assay: Sensitization of cisplatin-induced antiproliferative activity against human CDDP-resistant A549 cells assessed as inhibition of cell growth at 0.25 uM incubated for 48 hrs by MTT assay; type: functional, cell-based
# [40] = Toxicity in Caenorhabditis elegans assessed as reduction in growth by measuring body length at 50 to 100 uM measured after 72 hrs by […] microscopic analysis; details: dose 50-100 µM
# [41] = Toxicity in Caenorhabditis elegans assessed as reduction in movement speed at 20 to 100 uM measured after 72 hrs by […] microscopic analysis; details: dose 20-100 µM
# NCI-H446 [42] = assay: Induction of ROS production in human NCI-H446 cells assessed as increase in intracellular ROS level at 2 uM incubated for 24 hrs by DCFH-DA staining based flow cytometric analysis; type: functional, cell-based
# Cell membrane [43] = assay: Induction of mitochondrial membrane potential loss in human NCI-H446 cells at 0.25 uM incubated for 24 hrs by JC-1 staining based flow cytometric analysis; type: cell membranes
# [44] = Toxicity in Caenorhabditis elegans assessed as reduction in growth by measuring body length at 20 to 100 uM measured after 72 hrs by […] microscopic analysis; details: dose 20-100 µM
# [45] = Toxicity in Caenorhabditis elegans assessed as reduction in movement speed at 100 uM measured after 72 hrs by […] microscopic analysis
smiles,measurement,setting,value
C=CCc1ccc(OCCC)c(-c2ccc(OCCC[n+]3ccc(/C=C/c4c[nH]c5ccccc45)cc3)c(CC=C)c2)c1.[Br-],IC50 at 48 h,[1],23.1 µM
same,Activity,NCI-H446 [2],Dose-Dependent Effect
same,IC50,NCI-H446 [2],2.87 µM
same,IC50,A549,4.6 µM
same,IC50 at 48 h,[3],2.62 µM
same,IC50,HepG2,2.48 µM
same,selectivity ratio,[4],~10
same,Activity,NCI-H446 [5],Dose-Dependent Effect
same,Activity,NCI-H446 [6],Tde
same,Activity,NCI-H446 [7],Active
same,Activity,[8],Non-Toxic
same,viability at 0.25 µM,NCI-H446 [9],2.58%
same,Activity,NCI-H446 [10],39.9%
same,Activity,NCI-H446 [11],57.4%
same,Activity,NCI-H446 [12],0.14%
same,viability at 0.5 µM,NCI-H446 [13],1.75%
same,Activity,NCI-H446 [14],10.1%
same,Activity,NCI-H446 [15],88.1%
same,Activity,NCI-H446 [16],0.08%
same,viability at 1 µM,NCI-H446 [17],1.32%
same,Activity,NCI-H446 [18],2.12%
same,Activity,NCI-H446 [19],95.4%
same,Activity,NCI-H446 [20],0.13%
same,viability at 2 µM,NCI-H446 [21],1.97%
same,Activity,NCI-H446 [22],2.19%
same,Activity,NCI-H446 [23],95.4%
same,Activity,NCI-H446 [24],0.45%
same,Activity,NCI-H446 [25],Active
same,Activity,NCI-H446 [26],Active
same,Activity,NCI-H446 [27],Active
same,Activity,NCI-H446 [28],Active
same,Activity,NCI-H446 [29],Active
same,Drug uptake,[30],Active
same,Drug uptake,[31],Active
same,Activity,NCI-H446 [32],Dose-Dependent Effect
same,Activity,Cell membrane [33],Dose-Dependent Effect
same,Activity,NCI-H446 [34],68.31%
same,Activity,NCI-H446 [35],Active
same,Activity,NCI-H446 [36],Active
same,Activity,NCI-H446 [37],Dose-Dependent Effect
same,Activity,CDDP-resistant A549 cell [38],inactive
same,Activity,CDDP-resistant A549 cell [39],Active
same,Activity,[40],Non-Toxic
same,Activity,[41],Non-Toxic
C=CCc1ccc(O)c(-c2ccc(O)c(CC=C)c2)c1 [HONOKIOL],IC50 at 48 h,[1],43.7 µM
same,IC50,NCI-H446 [2],44.5 µM
same,IC50,A549,48.1 µM
same,IC50 at 48 h,[3],47.9 µM
same,IC50,HepG2,41.4 µM
same,viability at 0.25 µM,NCI-H446 [9],95.4%
same,Activity,NCI-H446 [10],0.38%
same,Activity,NCI-H446 [11],2.04%
same,Activity,NCI-H446 [12],2.17%
same,viability at 0.5 µM,NCI-H446 [13],96%
same,Activity,NCI-H446 [14],0.47%
same,Activity,NCI-H446 [15],1.98%
same,Activity,NCI-H446 [16],1.53%
same,viability at 1 µM,NCI-H446 [17],73.3%
same,Activity,NCI-H446 [18],1.1%
same,Activity,NCI-H446 [19],12.8%
same,Activity,NCI-H446 [20],12.8%
same,viability at 2 µM,NCI-H446 [21],69.1%
same,Activity,NCI-H446 [22],2.61%
same,Activity,NCI-H446 [23],13%
same,Activity,NCI-H446 [24],15.3%
same,Activity,NCI-H446 [42],inactive
same,Activity,Cell membrane [43],inactive
same,Activity,[44],Toxic
same,Activity,[45],Toxic
